Source: patent US4734418A, “Quinazoline compounds and antihypertensives” (priority 1984, dated 1988)
Read-outs that look alike come from different tables or passages of the source.

Test system: Spontaneously Hypertensive Rats
Assay: Test 1: antihypertensive effects (systolic tail artery blood pressure) and heart rate in spontaneously hypertensive rats, oral
Format: in vivo, rat (male, SHR)
Settings: SHR, oral 1 mg/Kg; for change in vivo at 1 mg/kg: Rattus norvegicus; for Change (%) in heart rate: maximum value
Experimental: The antihypertensive effects of the certain compounds of this invention were studied in the following manner.
Among male, spontaneously hypertensive rats (SHRs) of 20 weeks of age or older and 350-430 g heavy all of which had developed hypertension, those having systolic blood pressures of 180 mmHg or higher were used in groups, each of which was constituted of 3-4 of the rats. […] Besides, heart rates were also measured simultaneously. The compounds were each dissolved or suspended in a 0.5% methylcellulose solution and then administered orally.
*All administered orally at a dosage of 1 mg/Kg except for the compounds
**Each percent change in heart rate is indicated by the corresponding

[1] = 1 hour, read-out: Antihypertensive effects, change (%) in blood pressure, 1 hour later
[2] = 3 hours, read-out: Antihypertensive effects, change (%) in blood pressure, 3 hours later
[3] = 6 hours, read-out: Antihypertensive effects, change (%) in blood pressure, 6 hours later
[4] = 24 hours, read-out: Antihypertensive effects, change (%) in blood pressure, 24 hours later

Compound	change in vivo at 1 mg/kg [1]	change in vivo at 1 mg/kg [2]	change in vivo at 1 mg/kg [3]	change in vivo at 1 mg/kg [4]	Change (%) in heart rate
COc1cc2nc(N3CCN(c4ncc5c(=O)[nH]ccc5n4)CC3)nc(N)c2cc1OC [Example 3]	-2.5%	-8%	-15.1%	-5%	+7.1%
CCCn1ccc2nc(N3CCN(c4nc(N)c5cc(OC)c(OC)cc5n4)CC3)ncc2c1=O [Example 5]	0%	-6.3%	-13.2%	-6.3%	+2.6%
COc1cc2nc(N3CCN(c4ncc5c(=O)n(C(C)C)ccc5n4)CC3)nc(N)c2cc1OC [Example 6]	-1.5%	-13.8%	-16.7%	-9.9%	+5.1%
COc1cc2nc(N3CCN(c4ncc5c(=O)n(CCO)ccc5n4)CC3)nc(N)c2cc1OC [Example 7]	1.5%	-4.4%	-9.3%	-2.9%	+2.8%
COCCn1ccc2nc(N3CCN(c4nc(N)c5cc(OC)c(OC)cc5n4)CC3)ncc2c1=O [Example 8]	-0.5%	-9.5%	-11.4%	-4%	+5.2%
COc1cc2nc(N3CCN(c4ncc5c(=O)n(-c6ccccc6)ccc5n4)CC3)nc(N)c2cc1OC [Example 9]	-1.5%	-8.1%	-9.6%	-5.1%	+4.3%
COc1cc2nc(N3CCN(c4ncc5c(=O)n(Cc6ccccc6)ccc5n4)CC3)nc(N)c2cc1OC [Example 10]	1.5%	-14.4%	-11.9%	-5%	+5.2%
COc1cc2nc(N3CCN(c4ncc5c(=O)n(C6CC6)ccc5n4)CC3)nc(N)c2cc1OC [Example 11]	-0.5%	-16.6%	-17.1%	-6.8%	+5.7%
CCn1cc(C)c2nc(N3CCN(c4nc(N)c5cc(OC)c(OC)cc5n4)CC3)ncc2c1=O [Example 12]	-11%	-14.3%	-19%	-6.7%	+7.0%
CCn1cc(C#N)c2nc(N3CCN(c4nc(N)c5cc(OC)c(OC)cc5n4)CC3)ncc2c1=O [Example 13]	-1%	-3.9%		-3.9%	+7.4%
CCn1cc(C=O)c2nc(N3CCN(c4nc(N)c5cc(OC)c(OC)cc5n4)CC3)ncc2c1=O [Example 14]	-1.9%	-4.8%	-13.9%	-11%	+7.3%
CCn1cc(Cc2ccccc2)c2nc(N3CCN(c4nc(N)c5cc(OC)c(OC)cc5n4)CC3)ncc2c1=O [Example 15]	-2.9%	-7.7%	-12%	-7.7%	+3.7%
CCn1ccc2nc(N3CCN(c4nc(N)c5cc(OC)c(OC)cc5n4)CC3)ncc2c1=S [Example 16]	-2%	-8.9%	-15.3%	-8.9%	+7.5%
CCOC(=O)c1cc2nc(N3CCN(c4nc(N)c5cc(OC)c(OC)cc5n4)CC3)ncc2c(=O)n1CC [Example 18]	0%	-3.9%	-9.8%	-3.9%	+11.1%
COc1cc2nc(N3CCN(c4ncc5c(n4)CC(c4ccccc4)NC5=O)CC3)nc(N)c2cc1OC (stereo not drawn) [Example 19]	-2.4%	-10.1%	-11.1%	-2.9%	+2.9%
CCn1ccc(=O)c2cnc(N3CCN(c4nc(N)c5cc(OC)c(OC)cc5n4)CC3)nc21 [Example 20]	1.5%	-12.5%	-12%	-2%	+5.7%
CCCN1Cc2nc(N3CCN(c4nc(N)c5cc(OC)c(OC)cc5n4)CC3)ncc2C1=O [Example 26]	-8.8%	-15.2%	-21.6%	-4.9%	+9.8%

Compound	change in vivo at 1 mg/kg [1]	change in vivo at 1 mg/kg [2]	change in vivo at 1 mg/kg [3]	change in vivo at 1 mg/kg [4]	Change (%) in heart rate
CCCCN1Cc2nc(N3CCN(c4nc(N)c5cc(OC)c(OC)cc5n4)CC3)ncc2C1=O [Example 27]	-5.4%	-17.6%	-21%	-2.4%	+8.3%
COc1cc2nc(N3CCN(c4ncc5c(n4)CCCC(=O)N5)CC3)nc(N)c2cc1OC [Example 31]	-2.8%	-8.5%	-17.8%	-3.8%	
COc1cc2nc(N3CCN(c4ncc5c(n4)CCCC5=O)CC3)nc(N)c2cc1OC [Example 33]	-20.4%	-27%	-32.1%	-9.7%	+17.5%
COc1cc2nc(N3CCN(C4=NCc5c(ccn(C)c5=O)N4)CC3)nc(N)c2cc1OC [Example 34]	0.5%	-9.1%	-13.9%	-7.2%	+2.3%
CCn1ccc2c(c1=O)CN=C(N1CCN(c3nc(N)c4cc(OC)c(OC)cc4n3)CC1)N2 [Example 35]	-0.5%	-8.7%	-16.3%	-15.9%	+9.1%
COc1cc2nc(N3CCN(c4ncc(C(C)=O)c(C)n4)CC3)nc(N)c2cc1OC [Example 36]	-14.6%	-16.5%	-15%	-2.4%	+9.5%
CCNC(=O)c1cnc(N2CCN(c3nc(N)c4cc(OC)c(OC)cc4n3)CC2)nc1 [Example 37]	-4.7%	-16.4%	-21.1%	-8.5%	+5.8%
CCNC(=O)c1cnc(N2CCN(c3nc(N)c4cc(OC)c(OC)cc4n3)CC2)nc1CC [Example 38]	-26.6%	-24.1%	-27.6%	-7.9%	+7.9%
COc1cc2nc(N3CCN(c4ncc(C(N)=O)c(C)n4)CC3)nc(N)c2cc1OC [Example 40]	-1.4%	-15.9%	-18.4%	-8.2%	+5.8%
CCNC(=O)c1cnc(N2CCN(c3nc(N)c4cc(OC)c(OC)cc4n3)CC2)nc1C [Example 41]	-11.2%	-19.5%	-25.9%	-3.9%	+9.2%
CCN(CC)C(=O)c1cnc(N2CCN(c3nc(N)c4cc(OC)c(OC)cc4n3)CC2)nc1C [Example 42]	-16.5%	-19.5%	-24%	-7.5%	+5.2%
COc1cc2nc(N3CCN(c4ncc(C(=O)Nc5ccccc5)c(C)n4)CC3)nc(N)c2cc1OC [Example 43]	4.5%	0.5%	-6.5%	-9.5%	+5.7%
COc1cc2nc(N3CCN(c4ncc(C(=O)NCc5ccccc5)c(C)n4)CC3)nc(N)c2cc1OC [Example 44]	9.1%	0%	-4%	0%	+7.9%
COc1cc2nc(N3CCN(c4ncc(C(=O)NC5CCCCC5)c(C)n4)CC3)nc(N)c2cc1OC [Example 45]	-1.5%	-2.5%	-8%	-5.5%	+4.2%
COc1cc2nc(N3CCN(c4ncc(C(=O)N(C)C)c(C)n4)CC3)nc(N)c2cc1OC [Example 46]	0%	-11.9%	-17.5%	-5.7%	+7.4%
COc1cc2nc(N3CCN(c4ncc(C(=O)NN(C)C)c(C)n4)CC3)nc(N)c2cc1OC [Example 47]	-3.5%	-9%	-12.5%	-2.5%	+6.3%
COc1cc2nc(N3CCN(c4ncc(C(=O)NCC(F)(F)F)c(C)n4)CC3)nc(N)c2cc1OC [Example 48]	-4.5%	-9%	-15%	-4%	+6.9%
